Source: US5273974A, “Condensed heterocyclic compounds, their production and use” (priority 1990, dated 1993)
Counter-ions that a name gives are not always drawn.

The compounds below were run against T1, Acetylcholinesterase (Rattus norvegicus, UniProt P37136) (assay: Cholinesterase inhibitory activity assayed with (acetyl-[3H])-acetylcholine (S1 fraction of male Wistar rat cerebral cortex homogenate)). Details: (acetyl-[3H])-acetylcholine substrate, 30 minutes incubation.
T1 construct: S1 fraction of a homogenate of male Wistar rat cerebral cortex; from tissue; host or cells: male Wistar rat cerebral cortex, S1 fraction of homogenate
T1 sequence (P37136 32-614): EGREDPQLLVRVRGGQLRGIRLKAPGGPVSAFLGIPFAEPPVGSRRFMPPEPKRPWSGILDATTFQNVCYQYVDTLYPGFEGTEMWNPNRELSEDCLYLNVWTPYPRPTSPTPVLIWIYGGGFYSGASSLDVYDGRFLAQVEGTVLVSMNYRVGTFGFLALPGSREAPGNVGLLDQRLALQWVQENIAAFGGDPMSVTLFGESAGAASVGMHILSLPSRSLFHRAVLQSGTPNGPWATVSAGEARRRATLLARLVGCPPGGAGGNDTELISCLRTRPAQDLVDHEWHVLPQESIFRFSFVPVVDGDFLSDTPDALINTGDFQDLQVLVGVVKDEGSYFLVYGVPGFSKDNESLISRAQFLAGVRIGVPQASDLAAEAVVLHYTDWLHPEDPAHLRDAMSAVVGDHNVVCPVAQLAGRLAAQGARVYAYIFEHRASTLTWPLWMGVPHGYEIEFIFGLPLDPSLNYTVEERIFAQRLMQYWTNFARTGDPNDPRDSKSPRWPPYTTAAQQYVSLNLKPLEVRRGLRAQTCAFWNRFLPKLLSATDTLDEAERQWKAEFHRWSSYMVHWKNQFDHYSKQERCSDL
Type: biochemical
Protocol: The cholinesterase inhibitory activity of the compound of the present invention was assayed with (acetyl-[3H])-acetylcholine. Thus, using the S1 fraction of a homogenate of male Wistar rat cerebral cortex as the cholinesterase source, (acetyl-[3H])-acetylcholine and the compound of the invention were added as the substrate and the test substance, respectively, and the mixture was incubated for 30 minutes. After the reaction was terminated, a toluene-based scintillant was added and, after shaking, the reaction product [3H]-acetic acid which was transferred to the toluene layer was determined with a scintillation counter to estimate the cholinesterase activity.

Row | SMILES | IC50
1 | O=C(CCC1CCN(Cc2ccccc2)CC1)c1ccc2c(c1)NCCCC2 [19-16] | 102 nM
2 | O=C(CCC1CCN(Cc2ccccc2)CC1)c1ccc2c(c1)CCCN2 [Example 2, 6-[1-Oxo-3-[1-(phenylmethyl)piperidin-4-yl]propyl]-1,2,3,4-tetrahydroquinoline dihydrochloride] | 14 nM
3 | O=C(CCC1CCN(Cc2ccccc2)CC1)c1ccc2c(c1)CCCN2Cc1ccccc1 [Example 3, 1-(Phenylmethyl)-6-[3-[1-(phenylmethyl)piperidin-4-yl]-1-oxopropyl]-1,2,3,4-tetrahydroquinoline dihydrochloride] | 120 nM
4 | CN1CCCc2cc(C(=O)CCC3CCN(Cc4ccccc4)CC3)ccc21 [Example 4, 1-Methyl-6-[3-[1-(phenylmethyl)piperidin-4-yl]-1-oxopropyl]-1,2,3,4-tetrahydroquinoline dihydrochloride] | 10 nM
5 | O=C(CCC1CCN(Cc2ccccc2)CC1)c1ccc2c(c1)CCCN2 [Example 6-A, 6-[1-Oxo-3-[1-(phenylmethyl)piperidin-4-yl]propyl]-1,2,3,4-tetrahydroquinoline fumarate] | 54 nM
6 | O=C(CCC1CCN(Cc2ccccc2)CC1)c1ccc2c(c1)NCCC2 [Example 6-B, 7-[1-Oxo-3-[1-(phenylmethyl)piperidin-4-yl]propyl]-1,2,3,4-tetrahydroquinoline fumarate] | 54 nM
7 | CN1CCCc2cc(C(=O)CCC3CCN(Cc4ccccc4)CC3)ccc21 [Example 8-A, 1-Methyl-6-[1-oxo-3-[1-(phenylmethyl)piperidin-4-yl]-propyl]-1,2,3,4-tetrahydroquinoline fumarate] | 24 nM
8 | CN1CCCc2ccc(C(=O)CCC3CCN(Cc4ccccc4)CC3)cc21 [Example 8-B, 1-methyl-7-[1-oxo-3-[1-(phenylmethyl)piperidin-4-yl]propyl]-1,2,3,4-tetrahydroquinoline fumarate] | 36 nM
9 | O=C(CCC1CCN(Cc2ccccc2)CC1)c1ccc2c(c1)CCCN2Cc1ccccc1 [Example 10, 1-(Phenylmethyl)-6-[1-oxo-3-[1-(phenylmethyl)piperidin-4-yl]propyl]-1,2,3,4-tetrahydroquinoline fumarate] | 160 nM
10 | O=C(CCC1CCN(Cc2ccccc2)CC1)c1ccc2c(c1)CCN2 [Example 13, 2,3-Dihydro-5-[1-oxo-3-[1-(phenylmethyl)piperidin-4-yl]propyl]-1H-indole fumarate] | 20 nM
11 | CN1CCc2cc(C(=O)CCC3CCN(Cc4ccccc4)CC3)ccc21 [Example 14, 2,3-Dihydro-1-methyl-5-[1-oxo-3-[1-(phenylmethyl)-piperidin-4-yl]propyl]-1H-indole fumarate] | 10 nM
12 | O=C(CCC1CCN(Cc2ccccc2)CC1)c1ccc2c(c1)CCN2Cc1ccccc1 [Example 15, 2,3-Dihydro-5-[1-oxo-3-[1-(phenylmethyl)piperidin-4-yl]propyl]-1-(phenylmethyl)-1H-indole fumarate] | 68 nM
13 | CC(=O)N1CCCc2cc(C(=O)CCC3CCN(Cc4ccccc4)CC3)ccc21 [Example 16, 1-Acetyl-6-[1-oxo-3-[1-(phenylmethyl)piperidin-4-yl]propyl]-1,2,3,4-tetrahydroquinoline fumarate] | 14 nM
14 | Cc1cccc(CN2CCC(CCC(=O)c3ccc4c(c3)CCN4)CC2)c1 [Example 19-7] | 50 nM
15 | O=C(CCC1CCN(Cc2cccc(F)c2)CC1)c1ccc2c(c1)CCN2 [Example 19-8] | 16 nM
16 | CCN1CCc2cc(C(=O)CCC3CCN(Cc4ccccc4)CC3)ccc21 [Example 19-11] | 11 nM
17 | CCCN1CCc2cc(C(=O)CCC3CCN(Cc4ccccc4)CC3)ccc21 [Example 19-12] | 22 nM
18 | CCCCN1CCc2cc(C(=O)CCC3CCN(Cc4ccccc4)CC3)ccc21 [Example 19-13] | 29 nM
19 | CCCCCN1CCc2cc(C(=O)CCC3CCN(Cc4ccccc4)CC3)ccc21 [Example 19-14] | 47 nM
20 | O=C(CCC1CCN(Cc2ccccc2)CC1)c1ccc2c(c1)CCN2CCc1ccccc1 [Example 19-15] | 28 nM
21 | CN1CCCCc2ccc(C(=O)CCC3CCN(Cc4ccccc4)CC3)cc21 [Example 19-17] | 81 nM
22 | O=C(CCC1CCN(Cc2ccccc2)CC1)c1ccc2c(c1)CCCCN2 [Example 19-20] | 125 nM
23 | O=C(CCC1CCN(Cc2cccc(F)c2)CC1)c1ccc2c(c1)NCCCC2 [Example 19-21] | 145 nM
24 | O=C(CCC1CCN(Cc2ccccc2)CC1)c1ccc2c(c1)CCO2 [Example 21, 2,3-Dihydro-5-[1-oxo-3-[1-(phenylmethyl)piperidin-4-yl]propyl]benzofuran hydrochloride] | 28 nM
25 | O=C(CCC1CCN(Cc2ccccc2)CC1)c1ccc2c(c1)CCNCC2 [Example 22, 7-[1-Oxo-3-[1-(phenylmethyl)piperidin-4-yl]propyl]-2,3,4,5-tetrahydro-1H-3-benzazepine dihydrochloride] | 7.6 nM
26 | CN1CCc2ccc(C(=O)CCC3CCN(Cc4ccccc4)CC3)cc2CC1 [Example 23, 3-Methyl-7-[1-oxo-3-[1-(phenylmethyl)piperidin-4-yl]-propyl-2,3,4,5-tetrahydro-1H-3-benzazepinedihydrochloride] | 6.5 nM
27 | O=C(CCC1CCN(Cc2ccccc2)CC1)c1ccc2c(c1)NCC2 [Example 25, 2,3-Dihydro-6-[1-oxo-3-[1-(phenylmethyl)piperidin-4-yl]propyl]-1H-indole fumarate] | 113 nM
28 | O=C(CCC1CCN(Cc2ccccc2)CC1)c1ccc2c(c1)NCCCCC2 [Example 27, 9-[1-Oxo-3-[1-(phenylmethyl)piperidin-4-yl]propyl]-1,2,3,4,5,6-hexahydro-1-benzazocine fumarate] | 127 nM
